Source: patent US20120045393A1 (priority 2009, published 2012)
“Also recorded” adds a separate entry of the source. Read-outs that look alike come from different tables or passages of the source. Non-standard residues stand in square brackets, D forms with d. *: point of attachment. pGlu = O=C1CC[C@@H](C(=O)O)N1; DO3A10CM = not defined here; azaGly = NNC(=O)O; Sar = CNCC(=O)O; 125I = [125I]*

Assays:
[1] = system: EFO-27 human ovarian cancer cells (LHRH binding sites); assay: Direct binding/uptake of 177Lu-labeled LHRH-II analogs to EFO-27 cells; settings: 177Lu-labeled, 4° C., 1 h, single concentration
Protocol: All reagents and chemicals were obtained from Sigma unless otherwise specified. LHRH analogs and ^177Lu-LHRH-II analogs were prepared by in-house chemists, as described elsewhere in the application. ^177Lu-LHRH-II analogs were not HPLC purified, as they had been prepared using formulation conditions that yielded high RCP without the need for purification. […] The HPLC-purified material was taken in a stabilizing buffer containing 5% lactose, 0.1% L-cysteine hydrochloride and 800 KIU/mL aprotinin and received as a lyophilized product and stored at −70° C. This was reconstituted in distilled water, aliquoted and stored at −70° C. The radioactivity was determined using Microplate Scintillation counter (Wallac Microbeta Trilux).
For the binding assay, EFO-27 cells were seeded onto 96-well clear flat-bottom tissue-culture-treated plates at 15,000/well density in the growth medium and used for assay on day 2 post-seeding. Cells were routinely checked for confluence and contamination and cell count was done occasionally to ensure consistency in cell numbers.
Direct Binding: Direct binding studies were carried out by incubating appropriate ^177Lu-labeled compounds with EFO-27 cells at 4° C. for 1 h followed by washing off the unbound radioactivity. Non-specific binding was determined by incubating the ^177Lu-LHRH-II analogs in the presence of a large excess (30 uM) of cold (unlabeled) LHRH-II analogs. A 96-well plate format was used.

EFO-27 cells = assay: Internalization/efflux studies in EFO-27 cells; format: cell-based, human
How it was run: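 EFO-27 cells incubated 40 min at 37° C with ^177Lu-LHRH II or ^125I-LHRH II ([^125I-Tyr^8]BRU-2477) at 3.0 μCi/mL, washed, then kept in fresh medium. At 0, 15, 30, 60 and 120 min radioactivity split into membrane-bound, internalized and efflux fractions.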

[2] = system: PC-3 (human prostate cancer) cells; assay: Internalization/efflux studies in PC-3 cells; format: cell-based
Protocol: Internalization/Efflux Studies: The internalization and efflux studies were carried out following the general procedure. Basically, ^177Lu-LHRH II or ^125I-LHRH II ([^125I-Tyr^8]BRU-2477) (75 uL, 3.0 μCi/mL) was added to the EFO-27 or PC-3 cells. The cells were incubated for 40 min at 37° C. The unbound radioactivity was washed off (4×). Following addition of fresh medium, the cells were further incubated for up to 2 h. At various time points (15, 30, 60 & 120 min) the distribution of radioactivity (membrane-bound, internalized, and efflux) was determined
To determine whether prostate cancer cells (PC-3) behave differently from EFO-27 cells, internalization and efflux studies were carried out with ^177Lu-BRU-2813 using both cell lines.

[3] = mouse, in vivo, 10 min
Protocol: In addition, at both 2 and 10 min post injection, blood samples from two mice were collected. The collected blood samples at each time point were pooled and treated with two times their volume with ice-cooled methanol, and then the mixture was centrifuged at 4° C. for 20 min at 20,000×g to precipitate proteins. The supernatant was collected and the organic solvent in the solution was removed by speed-vacuum for 60 min. The concentrated supernatant was assayed by HPLC.

in vitro = in vitro ADME, mouse
Protocol: Livers from 10 female Tac:NCr:Foxn1^nu/nu mice were excised, rinsed with ice cold PBS (no Ca^++ or Mg^++) and weighed. The tissues were minced with scissors in Petri dishes on ice with Tris buffered saline (Pierce BupH™ Tris buffered saline packs, #28376; 25 mM Tris, 150 mM NaCl, pH 7.2). After mincing, the tissues were dounce homogenized, and the total volume adjusted with ice cold Tris buffer (4 mL for every gram of excised tissue). The homogenate was centrifuged at ˜4000×g for 10 min at 4° C. The supernatants were aliquoted into Eppendorf tubes on ice (200 and 100 μl volumes) and stored at −80° C. Kidney homogenates were similarly prepared. […] The mixture was centrifuged at 4° C. for 20 min at 20,000×g to precipitate the protein; 10 μL (˜7.6 μCi) of the supernatant was injected into the HPLC for the analysis. […] Peaks at these retention times were also observed in the in vivo plasma sample (FIG. 1). […] The final concentration for the Lu-BRU-2813 in the homogenate sample solution was ˜0.4 mg/mL. After 60 min incubation, the sample was immediately cooled on ice, and then 0.48 mL of ice-cooled methanol was added. The sample was centrifuged at 4° C. for 20 min at 20,000×g to precipitate the protein. The supernatant was collected, concentrated using a speed vacuum to remove organic solvents, and then analyzed by LC/MS.

[4] = In vitro metabolic stability in mouse liver homogenate at 37° C.; format: in vitro ADME
Protocol: Livers from 10 female Tac:NCr:Foxn1^nu/nu mice were excised, rinsed with ice cold PBS (no Ca^++ or Mg^++) and weighed. The tissues were minced with scissors in Petri dishes on ice with Tris buffered saline (Pierce BupH™ Tris buffered saline packs, #28376; 25 mM Tris, 150 mM NaCl, pH 7.2). After mincing, the tissues were dounce homogenized, and the total volume adjusted with ice cold Tris buffer (4 mL for every gram of excised tissue). The homogenate was centrifuged at ˜4000×g for 10 min at 4° C. The supernatants were aliquoted into Eppendorf tubes on ice (200 and 100 μl volumes) and stored at −80° C. Kidney homogenates were similarly prepared. […] The mixture was centrifuged at 4° C. for 20 min at 20,000×g to precipitate the protein; 10 μL (˜7.6 μCi) of the supernatant was injected into the HPLC for the analysis. […] Peaks at these retention times were also observed in the in vivo plasma sample (FIG. 1). […] After 0 and 60 min, the sample was removed from the incubator, immediately cooled on ice and 2 μL of 10 mM EDTA and 0.2 mL of ice-cooled MeOH were added, mixing after each addition. The proteins in the sample were separated by centrifugation at 14,000 rpm for 20 min. The supernatant was harvested and, in the samples spiked with the ^177Lu-analog, the radioactivity was measured using a Capintec dose calibrator to determine recovery. The sample was then analyzed by HPLC. […] After 0 and 60 min, the sample was removed from the incubator, immediately cooled on ice and 2 μL of 10 mM EDTA and 0.24 mL of ice-cooled methanol was added, mixing after each addition. The proteins in the sample were separated by centrifugation at 14,000 rpm for 20 min. The supernatant was collected and analyzed by LC/MS as described earlier herein.

[5] = system: LHRH-II-receptor-positive but LHRH-1-receptor-negative ovarian SK-OV-3 cell lines; settings: cited from earlier work
liver homogenate = settings: female Tac:NCr:Foxn1^nu/nu mice, 37° C., up to 60 min
kidney homogenate = settings: female Tac:NCr:Foxn1^nu/nu mice, 37° C., up to 60 min
[6] = kidney homogenate stock solution; settings: female Tac:NCr:Foxn1^nu/nu mice, 37° C., up to 60 min
[7] = plasma (blood) and urine samples collected post injection in normal mice; settings: up to 60 min post injection
[8] = target: LHRH receptor (LHRH binding sites) on EFO-27 human ovarian cancer cells (human); assay: saturation binding to EFO-27 cells, single-site fit
[9] = target: LHRH receptor (LHRH binding sites) on EFO-27 human ovarian cancer cells (human); assay: internalization/efflux study, cell-associated radioactivity, EFO-27 cells
[10] = target: LHRH receptor (LHRH binding sites) on EFO-27 human ovarian cancer cells (human); assay: internalization/efflux study, cell-associated radioactivity, EFO-27 cells, 156 fmoles added/well
[11] = target: T1, LHRH binding sites on EFO-27 human ovarian cancer cells (human); assay: competition with [125I-Tyr8]BRU-2477 on EFO-27 cells
T1 chain: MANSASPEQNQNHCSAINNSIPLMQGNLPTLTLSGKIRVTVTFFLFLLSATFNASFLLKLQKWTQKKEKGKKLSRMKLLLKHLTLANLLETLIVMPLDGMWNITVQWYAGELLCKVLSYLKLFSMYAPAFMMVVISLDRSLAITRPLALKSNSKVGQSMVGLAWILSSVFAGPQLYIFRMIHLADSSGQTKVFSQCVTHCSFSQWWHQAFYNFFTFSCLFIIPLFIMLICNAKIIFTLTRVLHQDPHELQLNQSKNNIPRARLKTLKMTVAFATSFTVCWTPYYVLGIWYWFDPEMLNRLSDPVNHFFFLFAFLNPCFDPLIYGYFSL

[12] = target: T1, LHRH binding sites (presumed LHRH …); assay: as above
[13] = target: T1, LHRH binding sites (presumed LHRH …); assay: as above
[14] = target: T1, LHRH binding sites (presumed LHRH …); assay: as above
[15] = target: LHRH receptor (LHRH binding sites) on PC-3 human prostate cancer cells (human); assay: internalization/efflux study, cell-associated radioactivity, PC-3 cells
[16] = target: LHRH receptor (LHRH binding sites) on EFO-27 human ovarian cancer cells (human); assay: direct binding of 177Lu-labeled peptide to EFO-27 cells, single concentration
[17] = target: LHRH receptor (LHRH binding sites) on PC-3 human prostate cancer cells (human); assay: internalization/efflux study, cell-associated radioactivity, PC-3 cells, 230 fmoles added/well
[18] = target: LHRH receptor (LHRH binding sites) on EFO-27 human ovarian cancer cells (human); assay: internalization/efflux study, cell-associated radioactivity, EFO-27 cells, 212 fmoles added/well
[19] = target: LHRH receptor (LHRH binding sites) on EFO-27 human ovarian cancer cells (human); assay: internalization/efflux study, cell-associated radioactivity, EFO-27 cells, 292 fmoles added/well
[20] = female, Tac:NCr:Foxn1nu/nu, mouse, tissue homogenate, pH 7.2

In the case of `N=C(N)NCCC[C@H](NC(=O)[C@@H](Cc1ccc2ccccc2c1)NC(=O)CN1CCN(CC(=O)O)CCN(CC(=O)O)CCN(CC(=O)O)CC1)C(=O)N[C@@H](Cc1c[nH]c2ccccc12)C(=O)N[C@@H](CO)C(=O)N[C@@H](Cc1cnc[nH]1)C(=O)N[C@H](CCCNC(=N)N)C(=O)N[C@@H](Cc1c[nH]c2ccccc12)C(=O)N[C@@H](Cc1ccc(C(=O)c2ccccc2)cc1)C(=O)N1CCC[C@H]1C(=O)NNC(N)=O` [177Lu-BRU-2813, Lu-DOTA-Dnal2-Arg-Trp-Ser-His-Darg-Trp-Bpa4-Pro-azaGly-NH2, metal not drawn], the “direct binding / uptake” value [1] is reported as 19%, the “direct binding / uptake” value ([1]; listed as Lu-BRU-2813) is reported as 18.8% and the “cell surface (membrane) binding” value (EFO-27 cells; % of the total bound) is reported as 60-65%. For the same molecule, the initial internalization (EFO-27 cells; % of total bound (cell-associated) radioactivity, T=0) was 27%, the efflux (EFO-27 cells; in 1 h) was 75-80% and the initial internalization ([2]; % of cell-associated counts) was 25%. For the same molecule, the cell surface activity ([2]; % of the total bound) was 60-65%, the efflux ([2]; in 1 h) was 75-80% and the “radioactivity remaining in the plasma still in parent form” value [3] was 66%. For the same molecule, the “metabolism in kidney homogenate” value (in vitro) was “Extensive metabolism was seen”, the remaining at 10 min, 2.3 mCi/mL (in vitro; female, Tac:NCr:Foxn1nu/nu, mouse, other tissue homogenate, pH 7.2) was 2.4% and the “metabolism in liver homogenate” value [4] was “Extensive metabolism was seen”. It also gave a remaining at 10 min, 2.3 mCi/mL [4, 20] of 18.3% and a remaining at 1 h, 0.3 mg/mL [4, 20] of 12.4 ± 8.7%.

In the case of “LHRH-II: native Chicken II LHRH: pGlu-His-Trp-Ser-His-Gly-Trp-Tyr-Pro-Gly-NH2 (EHWSHGWYPG; HELM PEPTIDE1{[Glp].H.W.S.H.G.W.Y.P.G.[am]}$$$$V2.0; SMILES NC(=O)CNC(=O)[C@@H]1CCCN1C(=O)[C@H](Cc1ccc(O)cc1)NC(=O)[C@H](Cc1c[nH]c2ccccc12)NC(=O)CNC(=O)[C@H](Cc1c[nH]cn1)NC(=O)[C@H](CO)NC(=O)[C@H](Cc1c[nH]c2ccccc12)NC(=O)[C@H](Cc1c[nH]cn1)NC(=O)[C@@H]1CCC(=O)N1)”, the “antiproliferative effect” value [5] is given as “showed antiproliferative effect”.

For “Lu-DOTA-Dnal2-Arg-Trp-Ser-His-Darg-Trp-Bpa4-Pro-azaGly-NH2”, the cleaved bond (liver homogenate) was “Bpa48-Pro9, major”, the cleaved bond (kidney homogenate) was “Bpa48-Pro9, major” and the cleaved bond [6] was “Bpa48-Pro9, major; also recorded: Trp7-Bpa48, major”. For the same molecule, the cleaved bond [7] was “Bpa48-Pro9, major” and the fragment found [7] was “BRU-3046; BRU-2813[1-7]-OH”.

B1: [Darg^6, ^125I-Tyr^8, azaGly^10]-LHRH-II (peptide)
peptide: [pGlu]HWSH[dR]WY(125I)P[azaGly]-NH2
B1 gave a Kd [8] of 1290 nM, a Max. binding (Bmax) (pmoles/10^6 cells) [8] of 141 and a Receptors/cell (receptors/cell) [8] of 8.5e+07. It also gave a Bound % [9] of 1.2% and a Bound fmoles [10] of 1.87 fmol.

B2: BRU-2724 (peptide)
peptide: DO3A10CM-[Sar]HWSH[dR]WWP[azaGly]-NH2
modifications: reading uncertain
notes: AA8 Trp
B2 showed an EC50 [11] of 2670 nM and an EC50 [12] of 2670 nM.

B3: BRU-3046 (peptide)
peptide: XRWSHXW
modifications: DO3A10CM on N-terminus; AA1 Dnal2; AA6 Darg; AA8-AA10 absent; C-terminal free acid
Molecule B3 has an EC50 [13] of 15.9 µM and an EC50 [14] of 15.9 µM.

B4: ^177Lu-BRU-2813 (peptide)
peptide: XRWSHXWXPX
modifications: 177Lu held by the N-terminal DO3A10CM: 177Lu-DO3A10CM-Dnal2-Arg-Trp-Ser-His-Darg-Trp-Bpa4-Pro-azaGly-NH2
B4 showed a Bound % [15] of 19.3%, a Bound % [9] of 19.1% and a % Bound [16] of 18.8%. It also gave a Bound fmoles [17] of 44.3 fmol and a Bound fmoles [18] of 40.5 fmol.

B5: ^177Lu-BRU-2968 (peptide)
peptide: XRWSHXWXP
modifications: 177Lu held by the N-terminal DO3A10CM: 177Lu-DO3A10CM-Dnal2-Arg-Trp-Ser-His-Darg-Trp-Bpa4-Pro-Da15o3pt
Molecule B5 has a Bound % [9] of 23.6%, a % Bound [16] of 23.5% and a Bound fmoles [19] of 68.8 fmol.
